Assay results reported in patent US9120946B2, “Active energy ray curing type composition, container that accommodates composition, inkjet discharging device having container, and cured matter” (RICOH COMPANY, LTD., priority 2013, dated 2015).

Experiments:
[1] = test system: female mice; experiment: skin sensitization test based on the LLNA (Local Lymph Node Assay), SI value by BrdU intake; assay type: in vivo; conditions: test substance 50.0 W/v % in acetone/olive oil 4:1, 25 μL to both auricles once a day for 3 days, SI less than 3 = negative
Description: The individuals remaining after the categorization were excluded from the test.
The test substance was weighed in a measuring flask, and the volume of the test substance was adjusted to 1 mL with the medium. The thus-prepared test substance preparation was placed in a light-shielded airtight container (made of glass).
This treatment was performed once a day for three consecutive days.
The surrounding tissue of each auricular lymph node was removed, and the auricular lymph nodes from both the auricles were collectively weighed.
After returning the auricular lymph nodes to room temperature, the auricular lymph nodes were mashed with the gradual addition of physiological saline, and suspended therein. The thus-obtained suspension was filtrated and thereafter dispensed into the wells of a 96-well microplate, with 3 wells being used per individual. The thus-dispensed suspensions were measured for intake of BrdU by the ELISA method. […] A multiplate reader (FLUOSTAR OPTIMA, product of BMG LABTECH Inc.) was used to measure the absorbance of each well (OD: 370 nm to 492 nm, the intake of BrdU), and the average of the absorbance of the 3 wells for each individual was used as the measurement of BrdU for the individual.

[2] = evaluation in Material Safety Data Sheet; cited from earlier work

| Compound | SI values in LLNA test [1] | skin sensitization in MSDS [2] |
| --- | --- | --- |
| polypropylene glycol diacrylate [a5] | 1.5 | – |
| caprolactone-modified dipentaerythritol hexaacrylate [a2] | – | Negative in MSDS |
| C=C(C)C(=O)OCCOCCOC(=O)C(=C)C [a1, diethyleneglycol dimethacrylate] | 1.1 | – |
